# In the supplement of paper PMC13380429:
# How the values were obtained:
# Conditions in all cases: 72 h
# Caco-2 [1] = test: cell viability relative to DMSO; higher = less toxic
# Calu-3 [2] = test: as above
# HepG2 [3] = test: as above
# U2OS [4] = test: as above
# Vero E6 [5] = test: as above
# Caco-2 [6] = test: relative viability EC50 (midpoint between 100% and the lowest measured viability); higher = less toxic
# Calu-3 [7] = test: as above
# HepG2 [8] = test: as above
# U2OS [9] = test: as above
# Vero E6 [10] = test: as above
# Caco-2 [11] = test: drug sensitivity score (DSS) for viability; higher = more toxic; extreme values may be limits of the assay
# Calu-3 [12] = test: as above
# HepG2 [13] = test: as above
# U2OS [14] = test: as above
# Vero E6 [15] = test: as above
Structure (SMILES),cell viability (Caco-2 [1]; 1 nM) [%],cell viability (Caco-2 [1]; 10 nM) [%],cell viability (Caco-2 [1]; 100 nM) [%],cell viability (Caco-2 [1]; 1000 nM) [%],cell viability (Caco-2 [1]; 10000 nM) [%],cell viability (Calu-3 [2]; 1 nM) [%],cell viability (Calu-3 [2]; 10 nM) [%],cell viability (Calu-3 [2]; 100 nM) [%],cell viability (Calu-3 [2]; 1000 nM) [%],cell viability (Calu-3 [2]; 10000 nM) [%],cell viability (HepG2 [3]; 1 nM) [%],cell viability (HepG2 [3]; 10 nM) [%],cell viability (HepG2 [3]; 100 nM) [%],cell viability (HepG2 [3]; 1000 nM) [%],cell viability (HepG2 [3]; 10000 nM) [%],cell viability (U2OS [4]; 1 nM) [%],cell viability (U2OS [4]; 10 nM) [%],cell viability (U2OS [4]; 100 nM) [%],cell viability (U2OS [4]; 1000 nM) [%],cell viability (U2OS [4]; 10000 nM) [%],cell viability (Vero E6 [5]; 1 nM) [%],cell viability (Vero E6 [5]; 10 nM) [%],cell viability (Vero E6 [5]; 100 nM) [%],cell viability (Vero E6 [5]; 1000 nM) [%],cell viability (Vero E6 [5]; 10000 nM) [%],relative viability EC50 (Caco-2 [6]) [µM],relative viability EC50 (Calu-3 [7]) [µM],relative viability EC50 (HepG2 [8]) [µM],relative viability EC50 (U2OS [9]) [µM],relative viability EC50 (Vero E6 [10]) [µM],drug sensitivity score (Caco-2 [11]),drug sensitivity score (Calu-3 [12]),drug sensitivity score (HepG2 [13]),drug sensitivity score (U2OS [14]),drug sensitivity score (Vero E6 [15])
Cc1cc(O)c(-c2ccc([C@@H](C)CN)cc2)c2c1[nH]c(=O)c1sccc12 [OTS514],98.6,87.1,83.6,29.9,25.5,105,92.5,81.7,23.9,38.8,109,99.4,46.3,3.1,1.1,96.3,97.8,96.6,1.1,1.1,102,98.8,93.2,85.4,6,0.21,0.16,0.0917,0.291,1.95,14.9,16.7,24.2,18.2,7.6
COc1ccccc1C(=O)Nc1cc2c(cc1N1CCCC1)n(C)c(=O)n2C [PFI-4],104,99.8,92.7,89.1,77.6,93.7,104,94.7,106,98,92.7,93.1,94.1,96.5,91.5,101,101,97.6,99.4,92,99.2,102,96.2,92.2,89,> 10,> 10,> 10,> 10,> 10,1.6,0,0,0,0
CCCCOc1cc(CC2CNC(=O)N2)ccc1OC (stereo not given) [Ro-20-1724],97.3,96.8,102,103,110,97.1,105,104,108,96.8,101,91.6,105,91.1,89.5,96.3,102,95.2,107,102,95.4,94.8,101,95.1,99.1,> 10,> 10,> 10,> 10,> 10,0,0,0.1,0,0
N[C@@H](CCC(=O)N[C@@H](CSN=O)C(=O)NCC(=O)O)C(=O)O [S-nitrosoglutathione],101,98.2,96.3,87.9,99.9,94,99.2,93.9,108,108,102,98.4,108,91.7,99,98,97.6,92.9,98.3,101,93.6,97.2,95.2,95.2,101,> 10,> 10,> 10,> 10,> 10,0,0,0,0,0
COc1ccc(CCNCc2ccc(OCc3ccc(Cl)nc3)c(OC)c2)cc1OC [SBE-13],90.3,94.3,92.1,98.2,95.3,108,97.8,93.3,99.1,93.8,107,105,102,96.1,94,98,103,102,98.8,95.2,107,104,101,98.5,97.3,> 10,> 10,> 10,> 10,> 10,0,0,0,0,0
NC(=O)c1ccc2[nH]ccc2c1 [SD-169],94.7,90.8,100,92.9,99.2,103,87.6,98.5,99.6,101,93.7,92.4,102,102,83.4,104,104,102,98.9,101,98.8,99.1,92.6,97.6,89.8,> 10,> 10,> 10,> 10,> 10,0,0,0.3,0,0
O=C(O)CCc1cc(C(=O)c2ccc(OC3CCCC3)cc2O)ccc1OCc1ccc2c(O)noc2c1 [T-5224],106,99.2,101,93.6,94,97.3,106,92.3,93.9,100,97.9,93,105,102,96.4,97.6,99.2,95.9,99.9,96.4,93.9,101,97.2,102,94.9,> 10,> 10,> 10,> 10,> 10,0,0,0,0,0
